We go through 22 compounds from patent US9856220B2 (AbbVie Deutschland GmbH & Co. KG, priority 2011, dated 2018).

The structures appear in SMILES notation.

In one data set the target is PDE10A (Homo sapiens (Human), UniProt Q9Y233). Nature of the data set: Measurement of PDE activity (recombinant PDE, cAMP HTRF). Type of data set: biochemical. The note with it: 20 nM cyclic nucleotide substrate, 60 minutes at 29 C. A digest of the protocol:
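Recombinant human PDE10A in 20 mM Tris-HCl pH 7.5, 10 mM MgCl2, 0.1% BSA with 20 nM cyclic nucleotide substrate; reaction 60 min at 29 C after compound preincubation with enzyme. Residual cAMP detected by HTRF (cAMP-d2/anti-cAMP cryptate); IC50 from inhibitor concentration versus PDE activity.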
Background: TR-FRET usually uses a lanthanide donor and a delayed reading to cut background.

Data set [1] in a line: Determination of the microsomal half-life / microsomal clearance, human liver microsomes. The class given is in vitro ADME. The following applies: 0.5 μM test substance, 0.25 mg of microsomal protein/ml, pH 7.4, 37° C. How it is done: (§1) b) Determination of the Microsomal Half-Life:
(§2) The metabolic stability of the compounds of the invention was determined in the following assay.
(§3) The test substances were incubated in a concentration of 0.5 μM as follows:
(§4) 0.5 μM test substance are preincubated together with liver microsomes from different species (from rat, human or other species) (0.25 mg of microsomal protein/ml) in 0.05 M potassium phosphate buffer of pH 7.4 in microtiter plates at 37° C. for 5 min. The reaction is started by adding NADPH (1 mg/mL). After 0, 5, 10, 15, 20 and 30 min, 50 μl aliquots are removed, and the reaction is immediately stopped and cooled with the same volume of acetonitrile. The samples are frozen until analyzed. The remaining concentration of undegraded test substance is determined by MSMS. The half-life (T½) is determined from the gradient of the signal of test substance/unit time plot, it being possible to calculate the half-life of the test substance, assuming first order kinetics, from the decrease in the concentration of the compound with time. The microsomal clearance (mCl) is calculated from mCl=ln 2/T½/(content of microsomal protein in mg/ml)×1000 [ml/min/mg]
Background: Microsomes from liver hold many membrane-bound enzymes, among them those of drug oxidation.

Data set [2] in a line: Determination of the microsomal half-life / microsomal clearance, rat liver microsomes. Type of data set: in vitro ADME. The following applies: 0.5 μM test substance, 0.25 mg of microsomal protein/ml, pH 7.4, 37° C. How it is done:
as §1, §2, §3, §4

PDE10A, sequence (Q9Y233 whole entry, species assumed): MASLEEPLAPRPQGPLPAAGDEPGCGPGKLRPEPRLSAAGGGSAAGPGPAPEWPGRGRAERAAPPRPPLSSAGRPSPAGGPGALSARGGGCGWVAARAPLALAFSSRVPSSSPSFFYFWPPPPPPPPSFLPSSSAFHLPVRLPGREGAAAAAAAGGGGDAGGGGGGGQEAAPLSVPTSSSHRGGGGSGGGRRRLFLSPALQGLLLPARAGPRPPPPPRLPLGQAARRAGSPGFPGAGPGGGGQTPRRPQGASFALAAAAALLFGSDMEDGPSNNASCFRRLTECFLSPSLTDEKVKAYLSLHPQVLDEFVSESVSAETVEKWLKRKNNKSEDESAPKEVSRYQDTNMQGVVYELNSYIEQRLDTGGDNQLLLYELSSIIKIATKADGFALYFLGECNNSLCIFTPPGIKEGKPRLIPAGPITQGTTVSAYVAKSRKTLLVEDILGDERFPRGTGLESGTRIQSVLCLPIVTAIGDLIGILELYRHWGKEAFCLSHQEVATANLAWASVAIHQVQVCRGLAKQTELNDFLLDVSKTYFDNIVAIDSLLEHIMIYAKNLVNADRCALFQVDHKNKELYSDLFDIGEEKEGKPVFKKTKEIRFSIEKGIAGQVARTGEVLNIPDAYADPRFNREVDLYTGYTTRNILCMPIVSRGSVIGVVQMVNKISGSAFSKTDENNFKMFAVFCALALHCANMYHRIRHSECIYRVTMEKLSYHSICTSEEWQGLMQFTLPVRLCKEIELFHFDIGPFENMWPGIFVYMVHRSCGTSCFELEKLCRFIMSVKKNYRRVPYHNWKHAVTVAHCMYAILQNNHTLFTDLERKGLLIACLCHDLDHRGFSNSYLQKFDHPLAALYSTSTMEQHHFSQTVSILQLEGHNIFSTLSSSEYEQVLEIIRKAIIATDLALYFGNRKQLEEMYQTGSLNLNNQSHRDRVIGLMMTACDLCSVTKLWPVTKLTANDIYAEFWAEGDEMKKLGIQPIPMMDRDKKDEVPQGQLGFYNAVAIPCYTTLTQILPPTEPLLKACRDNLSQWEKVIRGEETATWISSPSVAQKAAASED

For `CCC(CC)n1cc(C(=O)NCc2cc(C)no2)c2cc(OC)c(OC)cc2c1=O` [Example 241, 6,7-Dimethoxy-N-((3-methylisoxazol-5-yl)methyl)-1-oxo-2-(pentan-3-yl)-1,2-dihydroisoquinoline-4-carboxamide], the IC50 at PDE10A was in the range of 100 to 200 nM. Moreover, in data set [1], the “Human mCl” value was “++ (<100 μl min^−1 mg^−1)”. In addition, the “Rat mCl” value in data set [2] is on record as “+ (100-220 μl min^−1 mg^−1)”.

As for `CCn1cc(C(=O)NC2CCc3ccc(F)cc32)c2cc(OC)c(OC)cc2c1=O` (stereo not drawn) [Example 171, 2-Ethyl-N-(6-fluoro-2,3-dihydro-1H-inden-1-yl)-6,7-dimethoxy-1-oxo-1,2-dihydroisoquinoline-4-carboxamide], the IC50 at PDE10A lay in the range of 200 to 500 nM. Further, in data set [1], the “Human mCl” value is recorded as “++ (<100 μl min^−1 mg^−1)”. Moreover, the “Rat mCl” value in data set [2] is listed as “++ (<100 μl min^−1 mg^−1)”.

For `CCC(CC)n1cc(C(=O)NCc2cccnc2)c2cc(OC)c(OC)cc2c1=O` [Example 236, 6,7-Dimethoxy-1-oxo-2-(pentan-3-yl)-N-(pyridin-3-ylmethyl)-1,2-dihydroisoquinoline-4-carboxamide], the IC50 on PDE10A was in the range of 100 to 200 nM. The “Human mCl” value in data set [1] is given as “+ (100-220 μl min^−1 mg^−1)”. The “Rat mCl” value in data set [2] is “++ (<100 μl min^−1 mg^−1)”.

Consider `CCn1cc(C(=O)Nc2ccc(C)cc2)c2cc(OC)c(OC)cc2c1=O` [Example 158, 2-Ethyl-6,7-dimethoxy-1-oxo-N-p-tolyl-1,2-dihydroisoquinoline-4-carboxamide], for which the IC50 at PDE10A lay in the range of 100 to 200 nM. Moreover, the “Human mCl” value in data set [1] is “++ (<100 μl min^−1 mg^−1)”. Moreover, the “Rat mCl” value in data set [2] is “++ (<100 μl min^−1 mg^−1)”.

Turning to `CCC(CC)n1cc(C(=O)NCc2nccs2)c2cc(OC)c(OC)cc2c1=O` [Example 228, 2-(1-Ethyl-propyl)-6,7-dimethoxy-1-oxo-1,2-dihydro-isoquinoline-4-carboxylic acid (thiazol-2-ylmethyl)-amide], on PDE10A, the IC50 was in the range of 100 to 200 nM. Moreover, in data set [1], the “Human mCl” value is recorded as “++ (<100 μl min^−1 mg^−1)”. The “Rat mCl” value in data set [2] is recorded as “++ (<100 μl min^−1 mg^−1)”.

As to `CCC(CC)n1cc(C(=O)NCc2nc(C)cs2)c2cc(OC)c(OC)cc2c1=O` [Example 247, 6,7-Dimethoxy-N-((4-methylthiazol-2-yl)methyl)-1-oxo-2-(pentan-3-yl)-1,2-dihydroisoquinoline-4-carboxamide], the half-maximal inhibitory concentration (IC50) at PDE10A fell in the range of 100 to 200 nM. For the same compound, in data set [1], the “Human mCl” value is “+ (100-220 μl min^−1 mg^−1)”. Also, the “Rat mCl” value in data set [2] is recorded as “++ (<100 μl min^−1 mg^−1)”.

For the compound `CCCCNC(=O)c1cn(CC)c(=O)c2cc(OC)c(OCCc3ccc4ccccc4n3)cc12` [Example 136, 2-Ethyl-7-methoxy-1-oxo-6-(2-quinolin-2-yl-ethoxy)-1,2-dihydro-isoquinoline-4-carboxylic acid butylamide], the IC50 at PDE10A is less than 100 nM. For the same compound, the “Human mCl” value in data set [1] is “+ (100-220 μl min^−1 mg^−1)”. For the same compound, the “Rat mCl” value in data set [2] is “∘ (>220 μl min^−1 mg^−1)”.

Regarding `COc1cc2c(C(=O)NC3CCc4ccccc43)cn(C(C)C)c(=O)c2cc1OC` (stereo not drawn) [Example 198, 2-Isopropyl-6,7-dimethoxy-1-oxo-1,2-dihydro-isoquinoline-4-carboxylic acid indan-1-ylamide], the IC50 on PDE10A is 200 to 500 nM. The “Human mCl” value in data set [1] is “+ (100-220 μl min^−1 mg^−1)”. In data set [2], the “Rat mCl” value is reported as “++ (<100 μl min^−1 mg^−1)”.

Take `CCC(CC)n1cc(C(=O)N[C@@H](C)c2ccc(F)cc2)c2cc(OC)c(OC)cc2c1=O` [Example 246, (S)—N-(1-(4-fluorophenyl)ethyl)-6,7-dimethoxy-1-oxo-2-(pentan-3-yl)-1,2-dihydroisoquinoline-4-carboxamide]: on PDE10A, the IC50 lay within 100 to 200 nM. Besides, the “Human mCl” value in data set [1] is recorded as “∘ (>220 μl min^−1 mg^−1)”. Also, the “Rat mCl” value in data set [2] is on record as “+ (100-220 μl min^−1 mg^−1)”.

As to `CCn1cc(C(=O)NCc2ccc(C)cc2)c2cc(OC)c(OC)cc2c1=O` [Example 161, 2-Ethyl-6,7-dimethoxy-N-(4-methylbenzyl)-1-oxo-1,2-dihydroisoquinoline-4-carboxamide], the IC50 on PDE10A was less than 100 nM. Also, the “Human mCl” value in data set [1] is on record as “++ (<100 μl min^−1 mg^−1)”. For the same compound, the “Rat mCl” value in data set [2] was “++ (<100 μl min^−1 mg^−1)”.

Consider `CCC(CC)n1cc(C(=O)NCc2ccccc2S(=O)(=O)N2CCOCC2)c2cc(OC)c(OC)cc2c1=O` [Example 202, 2-(1-Ethyl-propyl)-6,7-dimethoxy-1-oxo-1,2-dihydro-isoquinoline-4-carboxylic acid 2-(morpholine-4-sulfonyl)-benzylamide], for which the IC50 on PDE10A is less than 100 nM. Further, the “Human mCl” value in data set [1] was “∘ (>220 μl min^−1 mg^−1)”. The “Rat mCl” value in data set [2] was “+ (100-220 μl min^−1 mg^−1)”.

For the compound `CCC(CC)n1cc(C(=O)NC2CCc3ncccc32)c2cc(OC)c(OC)cc2c1=O` (single isomer, unassigned; (-)) [Example 200, (−)-2-(1-Ethyl-propyl)-6,7-dimethoxy-1-oxo-1,2-dihydro-isoquinoline-4-carboxylic acid (6,7-dihydro-5H-[1]pyrindin-5-yl)-amide], the IC50 on PDE10A is 200 to 500 nM. The “Human mCl” value in data set [1] was “++ (<100 μl min^−1 mg^−1)”. For the same compound, the “Rat mCl” value in data set [2] was “++ (<100 μl min^−1 mg^−1)”.

For the compound `CCC(CC)n1cc(C(=O)NCc2csc(C)n2)c2cc(OC)c(OC)cc2c1=O` [Example 248, 6,7-Dimethoxy-N-((2-methylthiazol-4-yl)methyl)-1-oxo-2-(pentan-3-yl)-1,2-dihydroisoquinoline-4-carboxamide], the IC50 at PDE10A lay in the range of 100 to 200 nM. The “Human mCl” value in data set [1] was “+ (100-220 μl min^−1 mg^−1)”. Also, in data set [2], the “Rat mCl” value was “++ (<100 μl min^−1 mg^−1)”.

As for `CCC(CC)n1cc(C(=O)NCc2cc(C)on2)c2cc(OC)c(OC)cc2c1=O` [Example 244, 6,7-Dimethoxy-N-((5-methylisoxazol-3-yl)methyl)-1-oxo-2-(pentan-3-yl)-1,2-dihydroisoquinoline-4-carboxamide], the IC50 on PDE10A lay in the range of 200 to 500 nM. The “Human mCl” value in data set [1] is “++ (<100 μl min^−1 mg^−1)”. Also, the “Rat mCl” value in data set [2] was “++ (<100 μl min^−1 mg^−1)”.

As to `CCC(CC)n1cc(C(=O)NCc2ccccn2)c2cc(OC)c(OC)cc2c1=O` [Example 263, 6,7-Dimethoxy-1-oxo-2-(pentan-3-yl)-N-(pyridin-2-ylmethyl)-1,2-dihydroisoquinoline-4-carboxamide], the half-inhibitory concentration (IC50) at PDE10A was in the range of 100 to 200 nM. Moreover, in data set [1], the “Human mCl” value was “++ (<100 μl min^−1 mg^−1)”. Further, in data set [2], the “Rat mCl” value is “++ (<100 μl min^−1 mg^−1)”.

Turning to `CCC(C)n1cc(C(=O)NC2CCc3ccccc32)c2cc(OC)c(OC)cc2c1=O` (stereo not drawn) [Example 197, 2-sec-Butyl-6,7-dimethoxy-1-oxo-1,2-dihydro-isoquinoline-4-carboxylic acid indan-1-ylamide], the IC50 on PDE10A was in the range of 100 to 200 nM. In data set [1], the “Human mCl” value was “∘ (>220 μl min^−1 mg^−1)”. The “Rat mCl” value in data set [2] is on record as “+ (100-220 μl min^−1 mg^−1)”.

For `CCn1cc(C(=O)NC2CCc3ccccc32)c2cc(OC)c(OC)cc2c1=O` (stereo not drawn) [Example 40, 2-Ethyl-6,7-dimethoxy-1-oxo-1,2-dihydro-isoquinoline-4-carboxylic acid indan-1-ylamide], the 50% inhibitory concentration (IC50) on PDE10A is 100 to 200 nM. For the same compound, the “Human mCl” value in data set [1] is “++ (<100 μl min^−1 mg^−1)”. The “Rat mCl” value in data set [2] is “++ (<100 μl min^−1 mg^−1)”.

Regarding `CCC(CC)n1cc(C(=O)NCc2occc2C)c2cc(OC)c(OC)cc2c1=O` [Example 267, 6,7-Dimethoxy-N-((3-methylfuran-2-yl)methyl)-1-oxo-2-(pentan-3-yl)-1,2-dihydroisoquinoline-4-carboxamide], the IC50 at PDE10A is 100 to 200 nM. Besides, in data set [1], the “Human mCl” value is “+ (100-220 μl min^−1 mg^−1)”. The “Rat mCl” value in data set [2] is listed as “∘ (>220 μl min^−1 mg^−1)”.

As for `CCC(CC)n1cc(C(=O)NCc2c(C)noc2C)c2cc(OC)c(OC)cc2c1=O` [Example 238, N-((3,5-Dimethylisoxazol-4-yl)methyl)-6,7-dimethoxy-1-oxo-2-(pentan-3-yl)-1,2-dihydroisoquinoline-4-carboxamide], the IC50 on PDE10A was in the range of 100 to 200 nM. For the same compound, the “Human mCl” value in data set [1] was “++ (<100 μl min^−1 mg^−1)”. For the same compound, the “Rat mCl” value in data set [2] is on record as “+ (100-220 μl min^−1 mg^−1)”.

As to `CCC(CC)n1cc(C(=O)NCC2CCCCC2)c2cc(OC)c(OC)cc2c1=O` [Example 190, 2-(1-Ethyl-propyl)-6,7-dimethoxy-1-oxo-1,2-dihydro-isoquinoline-4-carboxylic acid cyclohexylmethyl-amide], at PDE10A, the IC50 fell in the range of 100 to 200 nM. Besides, in data set [1], the “Human mCl” value is listed as “∘ (>220 μl min^−1 mg^−1)”. For the same compound, in data set [2], the “Rat mCl” value is given as “+ (100-220 μl min^−1 mg^−1)”.

For `CCC(CC)n1cc(C(=O)N[C@H]2CCc3ccccc32)c2cc(OC)c(OC)cc2c1=O` [Example 192, 2-(1-Ethyl-propyl)-6,7-dimethoxy-1-oxo-1,2-dihydro-isoquinoline-4-carboxylic acid (S)-indan-1-ylamide], the IC50 at PDE10A is less than 100 nM. The “Human mCl” value in data set [1] is given as “∘ (>220 μl min^−1 mg^−1)”. Further, the “Rat mCl” value in data set [2] is reported as “+ (100-220 μl min^−1 mg^−1)”.

Consider `CCc1ccc(CNC(=O)c2cn(CC)c(=O)c3cc(OC)c(OC)cc23)cc1` [Example 313, 2-Ethyl-N-[(4-ethylphenyl)methyl]-6,7-dimethoxy-1-oxo-isoquinoline-4-carboxamide], for which, on PDE10A, the IC50 is 200 to 500 nM. Also, in data set [1], the “Human mCl” value was “++ (<100 μl min^−1 mg^−1)”. For the same compound, the “Rat mCl” value in data set [2] is on record as “++ (<100 μl min^−1 mg^−1)”.

For orientation: IC50 means the concentration at which inhibition is half-maximal.
